Results reported in PMC11249637, “Interaction of the Atypical Tetracyclines Chelocardin and Amidochelocardin with Renal Drug Transporters” (ACS Pharmacology & Translational Science, 2024).

What was measured:
mOat2 = target: T1, mOat2 (Mus musculus, UniProt Q91WU2); assay: Two-point inhibition of mOat2-mediated cGMP uptake in transfected HEK293 cells; format: in vitro ADME; conditions: cGMP 10 μM, 5 min, read-out: inhibitory effect on mOat2
T1 construct: expressed in transfected cells; host or cells: HEK293
T1 sequence (Q91WU2 1-540): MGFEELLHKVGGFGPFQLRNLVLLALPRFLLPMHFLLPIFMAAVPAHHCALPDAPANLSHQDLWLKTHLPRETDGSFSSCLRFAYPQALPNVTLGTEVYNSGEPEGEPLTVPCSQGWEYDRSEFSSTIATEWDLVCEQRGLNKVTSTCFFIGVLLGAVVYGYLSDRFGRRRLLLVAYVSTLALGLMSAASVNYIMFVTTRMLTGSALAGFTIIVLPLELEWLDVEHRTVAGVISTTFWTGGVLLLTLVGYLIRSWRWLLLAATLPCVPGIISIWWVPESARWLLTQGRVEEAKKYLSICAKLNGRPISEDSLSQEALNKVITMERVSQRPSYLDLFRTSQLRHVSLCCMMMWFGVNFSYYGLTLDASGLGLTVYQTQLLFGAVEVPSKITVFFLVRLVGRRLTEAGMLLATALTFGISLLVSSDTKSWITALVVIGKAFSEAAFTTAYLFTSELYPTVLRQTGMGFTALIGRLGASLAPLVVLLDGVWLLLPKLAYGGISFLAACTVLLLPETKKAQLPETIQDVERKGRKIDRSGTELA
Protocol: (§1) Well-characterized mOct1-, mOct2-, mOat1-, mOat2-, mOat3-, mMate1-, hOAT1-, hOAT3-, hOAT4-, hMRP2-, mMdr1a- and mMdr1b-transfected HEK293 cells and the respective vector-transfected control HEK293 cells were used.[42],[51],[52] All HEK293 cells (transporter-transfected and vector-transfected) were cultured in DMEM (Sigma, high glucose, 10% FBS, 1% penicillin (10,000 Units/mL)/streptomycin (10 mg/mL)) at 37°C under 5% CO2 in humidified atmosphere. The cells were routinely checked for the absence of mycoplasma infection. For the preparation of HEK293 cell monolayers, 24-well plates were pretreated with a poly-D-lysine hydrobromide solution (0.1 mg/mL). […]
For the uptake assay, the growth medium was aspirated, and each well was rinsed three times with 0.5 mL of incubation buffer (HBSS supplemented with 20 mM HEPES, pH 7.4) and incubated for 20 min at 37 °C. […] Cells were solubilized with 0.6 mL of 1N NaOH overnight and transferred into scintillation vials. ^3H and ^14C contents were measured after the addition of 2.5 mL of scintillator in a liquid scintillation counter.
The cellular protein amount was determined in parallel for each cell line (vector- and transporter-transfected) from six wells in a different 24-well reference plate using the Bradford method. […]
The inhibitory effect (I(%)) was calculated according to the formula: [drawing 5] […]

mMdr1b = target: T2, mMdr1b (Mus musculus, UniProt P06795); assay: Two-point inhibition of mMdr1b-mediated efflux of rhodamin123 in transfected HEK293 cells; format: in vitro ADME; conditions: rhodamin123 10 μM, efflux 30 min
T2 construct: expressed in transfected cells; host or cells: HEK293
Protocol: as §1, with “mg/mL). Each well was coated with 0.5 mL of poly-D-lysine solution and incubated for at least 15 min.” for “mg/mL).”
For efflux assays, growth medium was aspirated, and each well was rinsed twice with 0.5 mL of incubation HBSS buffer (supplemented with 20 mM HEPES, pH 7.4) and then preincubated in 200 μL of incubation buffer containing 10 μM rhodamin123 and 10 μM cyclosporine A for 60 min at 37 °C for loading the cells with rhodamin123. […] Samples were diluted with incubation buffer, and fluorescence was measured in a 96-well plate (Sarstedt, flat bottom) at an extinction of 490 nm and emission of 535 nm. […]
The inhibitory effect I (%) and the efflux ratio was calculated in the same way described for the uptake assays.

T2 sequence (P06795 whole entry): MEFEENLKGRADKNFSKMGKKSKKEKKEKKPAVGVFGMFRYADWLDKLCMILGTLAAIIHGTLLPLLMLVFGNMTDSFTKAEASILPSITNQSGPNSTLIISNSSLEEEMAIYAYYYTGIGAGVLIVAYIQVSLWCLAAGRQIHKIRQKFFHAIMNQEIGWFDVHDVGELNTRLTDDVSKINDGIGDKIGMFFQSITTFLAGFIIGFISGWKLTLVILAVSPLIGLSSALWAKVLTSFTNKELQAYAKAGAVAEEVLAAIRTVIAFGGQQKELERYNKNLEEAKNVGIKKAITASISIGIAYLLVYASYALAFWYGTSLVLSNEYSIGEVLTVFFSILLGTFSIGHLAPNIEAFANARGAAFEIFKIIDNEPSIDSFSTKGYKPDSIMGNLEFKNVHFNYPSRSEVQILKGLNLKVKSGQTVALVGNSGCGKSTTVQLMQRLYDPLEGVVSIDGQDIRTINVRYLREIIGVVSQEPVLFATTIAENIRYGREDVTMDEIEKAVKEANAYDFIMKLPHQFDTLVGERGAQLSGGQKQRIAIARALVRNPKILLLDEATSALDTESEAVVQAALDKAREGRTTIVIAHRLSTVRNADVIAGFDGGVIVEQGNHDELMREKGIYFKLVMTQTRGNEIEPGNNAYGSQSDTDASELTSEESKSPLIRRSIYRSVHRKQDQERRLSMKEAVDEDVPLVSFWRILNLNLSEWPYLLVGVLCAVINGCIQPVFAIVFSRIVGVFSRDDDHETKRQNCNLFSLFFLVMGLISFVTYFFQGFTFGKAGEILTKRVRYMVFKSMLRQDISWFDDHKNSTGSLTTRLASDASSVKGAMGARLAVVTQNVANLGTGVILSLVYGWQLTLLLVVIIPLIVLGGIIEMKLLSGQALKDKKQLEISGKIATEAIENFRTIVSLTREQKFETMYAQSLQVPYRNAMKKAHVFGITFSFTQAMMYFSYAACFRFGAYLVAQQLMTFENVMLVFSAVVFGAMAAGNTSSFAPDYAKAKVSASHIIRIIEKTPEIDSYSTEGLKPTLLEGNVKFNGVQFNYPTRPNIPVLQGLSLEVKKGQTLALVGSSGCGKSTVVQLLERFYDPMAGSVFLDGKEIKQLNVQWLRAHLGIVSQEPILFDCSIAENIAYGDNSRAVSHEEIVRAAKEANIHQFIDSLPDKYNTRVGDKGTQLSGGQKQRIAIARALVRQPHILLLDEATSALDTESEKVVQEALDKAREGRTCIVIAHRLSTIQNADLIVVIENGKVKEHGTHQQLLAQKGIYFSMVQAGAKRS

Row | Structure (SMILES) | inhibition at 10 µM (mOat2) [%] | inhibition at 10 µM (mMdr1b; HEK293, at 10 μM, read-out: inhibitory effect on mMdr1b) [%] | inhibitory effect on mMdr1b (in words) (mMdr1b; 1 and 10 μM)
1 | Cc1ccc2c(C)c3c(c(O)c2c1O)C(=O)[C@@]1(O)C(=O)C(C(N)=O)=C(O)[C@@H](N)[C@H]1C3 [CDCHD, amidochelocardin] | ~100 | ~30 | 
2 | CC(=O)C1=C(O)[C@@H](N)[C@H]2Cc3c(c(O)c4c(O)c(C)ccc4c3C)C(=O)[C@@]2(O)C1=O [CHD, chelocardin] | ~100 |  | no effect
